Laboratory results reported in patent US20240208961A1, “EIF4E INHIBITORS AND USES THEREOF” (PIC Therapeutics, Inc., priority 2022, published 2024).
Where “and” joins values, the source holds several entries; their conditions need not be identical. Identical values can stand only once. Like-named read-outs stand apart in the source and are kept apart here.

Assays:
[1] = Pharmacokinetic studies of certain compounds in female Balb/c mice (Example 5); assay type: in vivo
Protocol: Pharmacokinetic studies were performed using Balb/c mice, 15-20 g, 6-9 weeks, female, N=9, purchased from Jihui Laboratory Animal Co. LTD. For compound I-29, Balb/c mice, 19-21 g, 9-11 weeks, female, N=9, were used. The mice were fasted overnight and fed at 4 h post dosing.
Animals were dosed via oral gavage (PO) or tail vein injection (IV) with compound. Sampling occurred at 0.083, 0.25, 0.5, 1, 2, 4, 8, and 24 h post dose (8 time points). The animals were restrained manually at the designated time points. Approx. […] of blood was taken from the animals via facial vein for semi-serial bleeding into tubes with K2EDTA. Blood samples were put on ice and centrifuged at 4° C. (2000 g, 5 min) to obtain plasma within 15 min after sample collection. Plasma samples were stored in dry ice temporarily and at approximately −70° C. until analysis.
For oral gavage, the compound was dosed as a suspension in 1% sodium carboxymethyl cellulose (CMC) and 0.2% Tween 80 in water. For 23.8 mg/kg and 30 mg/kg doses, 3 mg/mL was used; for 50 mg/kg doses, 5 mg/mL was used; and for 100 mg/kg doses, 10 mg/mL was used.
For IV administration, the compound was dosed as a solution in 5% DMSO, 5% Solutol HS15 and 90% saline. For 1 mg/kg and 1.48 mg/kg doses, 0.2 mg/mL was used.
Plasma samples were analyzed using LC-MS using a calibration curve of known concentrations.
The results of these studies are summarized in Tables 11-21 below and in FIGS. 2-8. […] BQL=below quantifiable limit for compound in female Balb/c mouse plasma samples. NA=not available. PK parameters were estimated by non-compartmental model using WinNonlin 8.2. If the adjusted rsq (linear regression coefficient of the concentration value on the terminal phase) was less than 0.9, T1/2 might not have been accurately estimated. F value was determined by the following equation: • If AUClast/AUCINF>80%:
F=(AUCINF-EX×DOSEIV)/(AUCINF-IV×DOSEEX)[…] • If AUClast/AUCINF<80% or AUCINF not available:
F=(AUClast-EX×DOSEIV)/(AUClast-IV×DOSEEX)*1000

NIHOVCAR3 = experiment: Cell viability assay, adherent cell line, 5 day Alamar Blue (Example 8): NIHOVCAR3; assay type: cell-based; details: Homo sapiens, OVCAR-3, 120 h, OVCAR3, Ovarian Cancer Cell
Protocol: (§1) Cell viability assays were performed on certain compounds of the disclosure, according to the following procedure.
(§2) Cell line specific media conditions used:
(§3) The procedure for adherent cell line compound screening was as follows:
(§4) • Cells were seeded in 96-well cell culture treated tissue culture plates: ZR-75-1, NIHOVCAR3, T47D, and LOVO cells 4000 cells/well; and HPAFII 3000 cell/well
(§5) Day 3: Compound Dilution and Dosing
(§6) • 5-fold serial dilution (8 point) of each compound in DMSO 0-25 mM in compound storage plates was prepared (stored at −80° C. if not to be used immediately). • Cells were rinsed with 1% FBS Media (appropriate to cell line as described above) and replaced with 87.5 μL media prior to dosing. HPAFII was screened in normal 10% FBS Media. • DMSO compound dilution series was diluted in 1% FBS media (appropriate to cell line as described above)—2 μL in 248 μL to give an 8× final concentration. • Cells were dosed 12.5 μL/well in triplicate to give final dose curved on cells 0-25 μM. • Media blank 100 μL/well×8 was set up. • All plates were incubated at 37° C.
(§7) Day 8: 5 Day Viability Assay
(§8) • Alamar Blue viability reagent was added (10 μL per well) and incubated for 3 hours at 37° C. prior to fluorescence detection (Ex560 nm/Em590 nm) on a Varioskan Lux multimode plate reader.
(§9) Results from cell viability assays are summarized in Table 23, wherein A represents IC50≤1 μM; B represents 1 μM<IC50≤8 μM; and C represents IC50>8 μM. Blank cells indicate that the compound was not tested in a particular assay.

HPAFII = experiment: Cell viability assay, adherent cell line, 5 day Alamar Blue (Example 8): HPAFII; assay type: cell-based; details: Homo sapiens, HPAF-II, 120 h, Pancreatic Cancer Cell
Protocol: as §1, §2, §3, §4, §5, §6, §7, §8, §9

[2] = I-3 IV 1 mg/kg, 24 hr, BQL = below quantifiable limit of 1.00 ng/mL

SMILES: CC(C)Cc1sc(Nc2ncc(-c3cccs3)cc2C(=O)O)nc1C1CCCCC1 [Compound I-3]
- Plasma concentration Individual ([1]; I-3 IV 1 mg/kg, 0.083 hr, 1 mg/kg): 1790 ng/mL and 2660 ng/mL
- Plasma concentration Individual ([1]; I-3 IV 1 mg/kg, 0.25 hr, 1 mg/kg): 633 ng/mL and 539 ng/mL
- Plasma concentration Individual ([1]; I-3 IV 1 mg/kg, 0.5 hr, 1 mg/kg): 292 ng/mL and 352 ng/mL
- Plasma concentration Individual ([1]; I-3 IV 1 mg/kg, 1 hr, 1 mg/kg): 101 ng/mL and 116 ng/mL
- Plasma concentration Individual ([1]; I-3 IV 1 mg/kg, 2 hr, 1 mg/kg): 35.6 ng/mL and 28.1 ng/mL
- Plasma concentration Individual ([1]; I-3 IV 1 mg/kg, 4 hr, 1 mg/kg): 7.05 ng/mL and 7.52 ng/mL and 21.3 ng/mL
- Plasma concentration Individual ([1]; I-3 IV 1 mg/kg, 8 hr, BQL = below quantifiable limit of 1.00 ng/mL, 1 mg/kg): BQL
- Plasma concentration Individual [1, 2]: BQL
- Plasma concentration Mean [1, 2]: BQL
- F ([1]; I-3 PO 30 mg/kg vs IV 1 mg/kg): 36.0%
- Plasma concentration Individual ([1]; I-3 PO 30 mg/kg, 0.083 hr, 30 mg/kg): 69.9 ng/mL and 44.9 ng/mL
- Plasma concentration Individual ([1]; I-3 PO 30 mg/kg, 0.25 hr, 30 mg/kg): 420 ng/mL and 461 ng/mL
- Plasma concentration Individual ([1]; I-3 PO 30 mg/kg, 0.5 hr, 30 mg/kg): 1920 ng/mL and 1840 ng/mL
- Plasma concentration Individual ([1]; I-3 PO 30 mg/kg, 1 hr, 30 mg/kg): 1520 ng/mL and 1760 ng/mL
- Plasma concentration Individual ([1]; I-3 PO 30 mg/kg, 2 hr, 30 mg/kg): 1530 ng/mL and 1800 ng/mL
- Plasma concentration Individual ([1]; I-3 PO 30 mg/kg, 4 hr, 30 mg/kg): 896 ng/mL and 860 ng/mL
- Plasma concentration Individual ([1]; I-3 PO 30 mg/kg, 8 hr, 30 mg/kg): 124 ng/mL and 186 ng/mL
- Plasma concentration Individual ([1]; I-3 PO 30 mg/kg, 24 hr, 30 mg/kg): 10.6 ng/mL and 4.10 ng/mL and 3.10 ng/mL
- concentration at 0.083 hr ([1]; female, Balb/c, mouse, plasma, iv, 1 mg/kg, I-3 IV 1 mg/kg, 0.083 hr, read-out: Plasma concentration Individual): 1910 ng/mL
- concentration at 0.083 hr ([1]; female, Balb/c, mouse, plasma, iv, 1 mg/kg, I-3 IV 1 mg/kg, 0.083 hr, read-out: Plasma concentration Mean): 2120 ng/mL
- concentration at 0.25 hr ([1]; female, Balb/c, mouse, plasma, iv, 1 mg/kg, I-3 IV 1 mg/kg, 0.25 hr, read-out: Plasma concentration Individual): 511 ng/mL
- concentration at 0.25 hr ([1]; female, Balb/c, mouse, plasma, iv, 1 mg/kg, I-3 IV 1 mg/kg, 0.25 hr, read-out: Plasma concentration Mean): 561 ng/mL
- concentration at 0.5 h ([1]; female, Balb/c, mouse, plasma, iv, 1 mg/kg, I-3 IV 1 mg/kg, 0.5 hr, read-out: Plasma concentration Individual): 246 ng/mL
- concentration at 0.5 h ([1]; female, Balb/c, mouse, plasma, iv, 1 mg/kg, I-3 IV 1 mg/kg, 0.5 hr, read-out: Plasma concentration Mean): 297 ng/mL
- concentration at 1 h ([1]; female, Balb/c, mouse, plasma, iv, 1 mg/kg, I-3 IV 1 mg/kg, 1 hr, read-out: Plasma concentration Individual): 111 ng/mL
- concentration at 1 h ([1]; female, Balb/c, mouse, plasma, iv, 1 mg/kg, I-3 IV 1 mg/kg, 1 hr, read-out: Plasma concentration Mean): 109 ng/mL
- concentration at 2 h ([1]; female, Balb/c, mouse, plasma, iv, 1 mg/kg, I-3 IV 1 mg/kg, 2 hr, read-out: Plasma concentration Individual): 28.7 ng/mL
- concentration at 2 h ([1]; female, Balb/c, mouse, plasma, iv, 1 mg/kg, I-3 IV 1 mg/kg, 2 hr, read-out: Plasma concentration Mean): 30.8 ng/mL
- concentration at 4 h ([1]; female, Balb/c, mouse, plasma, iv, 1 mg/kg, I-3 IV 1 mg/kg, 4 hr, read-out: Plasma concentration Mean): 12 ng/mL
- concentration at 8 h ([1]; female, Balb/c, mouse, plasma, iv, 1 mg/kg, I-3 IV 1 mg/kg, 8 hr, BQL = below quantifiable limit of 1.00 ng/mL, read-out: Plasma concentration Individual): 1.62 ng/mL
- concentration at 8 h ([1]; female, Balb/c, mouse, plasma, iv, 1 mg/kg, I-3 IV 1 mg/kg, 8 hr, BQL = below quantifiable limit of 1.00 ng/mL, read-out: Plasma concentration Mean): 1.62 ng/mL
- concentration at 0.083 hr ([1]; female, Balb/c, mouse, plasma, po, 30 mg/kg, I-3 PO 30 mg/kg, 0.083 hr, read-out: Plasma concentration Individual): 56.7 ng/mL
- concentration at 0.083 hr ([1]; female, Balb/c, mouse, plasma, po, 30 mg/kg, I-3 PO 30 mg/kg, 0.083 hr, read-out: Plasma concentration Mean): 57.2 ng/mL
- concentration at 0.25 hr ([1]; female, Balb/c, mouse, plasma, po, 30 mg/kg, I-3 PO 30 mg/kg, 0.25 hr, read-out: Plasma concentration Individual): 453 ng/mL
- concentration at 0.25 hr ([1]; female, Balb/c, mouse, plasma, po, 30 mg/kg, I-3 PO 30 mg/kg, 0.25 hr, read-out: Plasma concentration Mean): 445 ng/mL
- concentration at 0.5 hr ([1]; female, Balb/c, mouse, plasma, po, 30 mg/kg, I-3 PO 30 mg/kg, 0.5 hr, read-out: Plasma concentration Individual): 1950 ng/mL
- concentration at 0.5 hr ([1]; female, Balb/c, mouse, plasma, po, 30 mg/kg, I-3 PO 30 mg/kg, 0.5 hr, read-out: Plasma concentration Mean): 1900 ng/mL
- concentration at 1 hr ([1]; female, Balb/c, mouse, plasma, po, 30 mg/kg, I-3 PO 30 mg/kg, 1 hr, read-out: Plasma concentration Individual): 1490 ng/mL
- concentration at 1 hr ([1]; female, Balb/c, mouse, plasma, po, 30 mg/kg, I-3 PO 30 mg/kg, 1 hr, read-out: Plasma concentration Mean): 1590 ng/mL
- concentration at 2 hr ([1]; female, Balb/c, mouse, plasma, po, 30 mg/kg, I-3 PO 30 mg/kg, 2 hr, read-out: Plasma concentration Individual): 1750 ng/mL
- concentration at 2 hr ([1]; female, Balb/c, mouse, plasma, po, 30 mg/kg, I-3 PO 30 mg/kg, 2 hr, read-out: Plasma concentration Mean): 1690 ng/mL
- concentration at 4 hr ([1]; female, Balb/c, mouse, plasma, po, 30 mg/kg, I-3 PO 30 mg/kg, 4 hr, read-out: Plasma concentration Individual): 991 ng/mL
- concentration at 4 hr ([1]; female, Balb/c, mouse, plasma, po, 30 mg/kg, I-3 PO 30 mg/kg, 4 hr, read-out: Plasma concentration Mean): 916 ng/mL
- concentration at 8 hr ([1]; female, Balb/c, mouse, plasma, po, 30 mg/kg, I-3 PO 30 mg/kg, 8 hr, read-out: Plasma concentration Individual): 182 ng/mL
- concentration at 8 hr ([1]; female, Balb/c, mouse, plasma, po, 30 mg/kg, I-3 PO 30 mg/kg, 8 hr, read-out: Plasma concentration Mean): 164 ng/mL
- concentration at 24 hr ([1]; female, Balb/c, mouse, plasma, po, 30 mg/kg, I-3 PO 30 mg/kg, 24 hr, read-out: Plasma concentration Mean): 5.93 ng/mL
- AUC(0-inf) ([1]; mouse, plasma, I-3 IV 1 mg/kg): 834 ng·h/mL
- AUC(0-t) ([1]; mouse, plasma, I-3 IV 1 mg/kg): 831 ng·h/mL
- C0 ([1]; mouse, plasma, I-3 IV 1 mg/kg): 4100 ng/mL
- MRT inf ([1]; mouse, plasma, I-3 IV 1 mg/kg): 0.58 h
- MRT last ([1]; mouse, plasma, I-3 IV 1 mg/kg): 0.542 h
- clearance ([1]; mouse, plasma, I-3 IV 1 mg/kg): 20 mL/min/kg
- half-life ([1]; mouse, plasma, I-3 IV 1 mg/kg): 1.41 h
- Vd ([1]; mouse, plasma, I-3 IV 1 mg/kg, read-out: Vss): 0.695 L/kg
- AUC(0-inf) ([1]; mouse, plasma, I-3 PO 30 mg/kg): 9000 ng·h/mL
- AUC(0-t) ([1]; mouse, plasma, I-3 PO 30 mg/kg): 8980 ng·h/mL
- Cmax ([1]; mouse, plasma, I-3 PO 30 mg/kg): 1900 ng/mL
- MRT inf ([1]; mouse, plasma, I-3 PO 30 mg/kg): 3.62 h
- MRT last ([1]; mouse, plasma, I-3 PO 30 mg/kg): 3.55 h
- Tmax ([1]; mouse, plasma, I-3 PO 30 mg/kg): 0.5 h
- half-life ([1]; mouse, plasma, I-3 PO 30 mg/kg): 2.77 h
- IC50 (NIHOVCAR3): 1000 to 8000 nM
- IC50 (HPAFII): ≤ 1000 nM

SMILES: CC(C)Cc1sc(Nc2ncc(-c3cccs3)cc2C(=O)O)nc1C(C)(C)C [Compound I-11]
- IC50 (NIHOVCAR3): ≤ 1000 nM
- IC50 (HPAFII): ≤ 1000 nM
